ChEMBL document CHEMBL1201862, “PubChem BioAssay data set” (2004)
Calls of active or inactive are those of the source.

Columns and labels:
[1] = tested on: Vero; assay: cells; assay type: functional; settings: Chlorocebus sabaeus
[2] = Luminescent dose response cell-based high throughput screening assay for inhibitors of the Janus kinase 2 mutant JAK2V617F. [Related pubchem assays: 1446 (Primary screen.), 1521 (Confirmation assay.), 1486 (Counter screen.)]; assay type: functional
[3] = tested on: Vero; assay: cells; assay type: functional, cell-based; settings: Chlorocebus sabaeus
[4] = biological target: T1, Estrogen receptor (Homo sapiens, UniProt P03372); assay: potentiators of ERα–SRC-1 coactivator binding, dose response, biochemical, TR-FRET, ERα LBD (AID 737)
T1 sequence (P03372 whole entry): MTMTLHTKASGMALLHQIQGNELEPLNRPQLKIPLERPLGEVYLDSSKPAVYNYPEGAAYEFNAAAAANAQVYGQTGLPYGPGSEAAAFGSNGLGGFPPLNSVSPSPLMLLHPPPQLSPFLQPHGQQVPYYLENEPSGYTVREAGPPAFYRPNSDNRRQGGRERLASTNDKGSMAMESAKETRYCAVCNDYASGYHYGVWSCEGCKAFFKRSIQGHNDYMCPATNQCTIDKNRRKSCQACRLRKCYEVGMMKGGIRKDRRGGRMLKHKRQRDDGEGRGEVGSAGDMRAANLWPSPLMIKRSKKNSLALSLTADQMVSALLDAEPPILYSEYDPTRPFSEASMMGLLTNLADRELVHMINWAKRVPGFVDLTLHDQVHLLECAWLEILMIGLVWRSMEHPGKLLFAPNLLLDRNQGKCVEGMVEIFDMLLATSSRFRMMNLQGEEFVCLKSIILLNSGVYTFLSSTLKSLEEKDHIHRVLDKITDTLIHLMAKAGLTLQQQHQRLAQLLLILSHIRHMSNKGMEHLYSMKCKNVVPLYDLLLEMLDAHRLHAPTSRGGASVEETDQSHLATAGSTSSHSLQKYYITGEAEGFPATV

[5] = biological target: Solute carrier family 12 member 2/member 5 (Homo sapiens, UniProt P55011+Q9H2X9); assay: KCC2 and NKCC1 inhibition by rubidium flux, cell-based, NKCC1 counter-screen (AID 1734); assay type: functional, HEK293
[6] = biological target: T2, Voltage-gated N-type calcium channel alpha-1B subunit/Amyloid beta A4 precursor protein-binding family A member 1 (Homo sapiens, UniProt Q00975+Q02410); assay type: protein assay
T2 sequence (Q00975 whole entry): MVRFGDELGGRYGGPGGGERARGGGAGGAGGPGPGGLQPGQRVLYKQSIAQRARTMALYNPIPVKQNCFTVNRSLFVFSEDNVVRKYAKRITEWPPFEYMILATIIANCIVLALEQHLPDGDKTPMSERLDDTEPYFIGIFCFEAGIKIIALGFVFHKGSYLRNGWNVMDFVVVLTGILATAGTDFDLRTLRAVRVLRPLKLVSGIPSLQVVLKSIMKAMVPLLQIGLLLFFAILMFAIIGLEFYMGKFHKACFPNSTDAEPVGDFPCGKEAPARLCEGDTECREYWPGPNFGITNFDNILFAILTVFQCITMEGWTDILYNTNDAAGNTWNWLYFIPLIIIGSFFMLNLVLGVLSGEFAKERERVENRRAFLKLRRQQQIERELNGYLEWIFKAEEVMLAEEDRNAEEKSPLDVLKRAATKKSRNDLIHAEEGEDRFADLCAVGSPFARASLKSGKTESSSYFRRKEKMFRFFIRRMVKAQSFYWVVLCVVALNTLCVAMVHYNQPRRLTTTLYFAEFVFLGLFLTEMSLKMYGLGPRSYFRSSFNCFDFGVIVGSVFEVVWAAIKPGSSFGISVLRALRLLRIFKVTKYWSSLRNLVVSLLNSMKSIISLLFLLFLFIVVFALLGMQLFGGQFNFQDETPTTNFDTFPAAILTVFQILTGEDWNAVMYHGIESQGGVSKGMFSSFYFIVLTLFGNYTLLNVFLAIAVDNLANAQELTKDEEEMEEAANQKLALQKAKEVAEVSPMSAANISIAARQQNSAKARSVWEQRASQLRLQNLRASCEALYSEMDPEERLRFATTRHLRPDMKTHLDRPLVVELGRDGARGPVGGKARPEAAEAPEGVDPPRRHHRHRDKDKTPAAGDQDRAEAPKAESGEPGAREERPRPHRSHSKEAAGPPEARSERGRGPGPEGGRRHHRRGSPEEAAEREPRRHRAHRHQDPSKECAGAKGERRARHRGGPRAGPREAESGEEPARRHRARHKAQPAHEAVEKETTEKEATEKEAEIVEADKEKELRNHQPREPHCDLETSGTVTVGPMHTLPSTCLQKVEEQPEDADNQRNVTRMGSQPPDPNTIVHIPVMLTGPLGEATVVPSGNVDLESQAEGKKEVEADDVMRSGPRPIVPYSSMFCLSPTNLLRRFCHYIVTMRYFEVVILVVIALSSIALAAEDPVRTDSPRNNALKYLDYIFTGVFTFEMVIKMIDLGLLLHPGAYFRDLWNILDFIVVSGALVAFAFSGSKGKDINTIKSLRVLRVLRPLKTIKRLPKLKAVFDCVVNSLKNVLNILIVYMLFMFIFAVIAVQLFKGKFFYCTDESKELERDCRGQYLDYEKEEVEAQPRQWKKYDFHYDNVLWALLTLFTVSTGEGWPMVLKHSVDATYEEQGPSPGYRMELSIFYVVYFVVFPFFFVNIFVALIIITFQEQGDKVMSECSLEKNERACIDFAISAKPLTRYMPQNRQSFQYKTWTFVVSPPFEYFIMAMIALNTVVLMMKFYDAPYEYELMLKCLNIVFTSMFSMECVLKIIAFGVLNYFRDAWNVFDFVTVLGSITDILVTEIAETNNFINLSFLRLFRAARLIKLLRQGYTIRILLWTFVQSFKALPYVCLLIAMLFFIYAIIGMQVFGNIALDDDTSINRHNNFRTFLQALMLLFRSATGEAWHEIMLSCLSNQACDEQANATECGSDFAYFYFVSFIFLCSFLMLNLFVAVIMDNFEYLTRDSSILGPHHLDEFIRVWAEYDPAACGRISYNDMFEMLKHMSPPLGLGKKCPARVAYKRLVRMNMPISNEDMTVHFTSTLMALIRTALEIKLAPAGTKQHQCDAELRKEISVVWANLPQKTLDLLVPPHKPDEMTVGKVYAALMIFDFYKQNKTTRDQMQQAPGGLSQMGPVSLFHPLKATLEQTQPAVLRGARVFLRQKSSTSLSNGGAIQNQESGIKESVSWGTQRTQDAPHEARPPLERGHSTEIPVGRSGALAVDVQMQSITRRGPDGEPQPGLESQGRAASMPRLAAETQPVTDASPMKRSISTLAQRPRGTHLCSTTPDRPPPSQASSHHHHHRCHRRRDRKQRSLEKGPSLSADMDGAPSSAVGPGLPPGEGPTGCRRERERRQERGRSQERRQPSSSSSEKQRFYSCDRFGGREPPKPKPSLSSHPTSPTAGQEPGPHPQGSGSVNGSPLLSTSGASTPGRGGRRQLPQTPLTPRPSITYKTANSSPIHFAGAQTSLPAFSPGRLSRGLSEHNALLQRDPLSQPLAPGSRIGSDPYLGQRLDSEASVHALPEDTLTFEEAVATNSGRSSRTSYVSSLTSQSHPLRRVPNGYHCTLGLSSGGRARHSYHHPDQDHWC
T2 sequence (Q02410 whole entry): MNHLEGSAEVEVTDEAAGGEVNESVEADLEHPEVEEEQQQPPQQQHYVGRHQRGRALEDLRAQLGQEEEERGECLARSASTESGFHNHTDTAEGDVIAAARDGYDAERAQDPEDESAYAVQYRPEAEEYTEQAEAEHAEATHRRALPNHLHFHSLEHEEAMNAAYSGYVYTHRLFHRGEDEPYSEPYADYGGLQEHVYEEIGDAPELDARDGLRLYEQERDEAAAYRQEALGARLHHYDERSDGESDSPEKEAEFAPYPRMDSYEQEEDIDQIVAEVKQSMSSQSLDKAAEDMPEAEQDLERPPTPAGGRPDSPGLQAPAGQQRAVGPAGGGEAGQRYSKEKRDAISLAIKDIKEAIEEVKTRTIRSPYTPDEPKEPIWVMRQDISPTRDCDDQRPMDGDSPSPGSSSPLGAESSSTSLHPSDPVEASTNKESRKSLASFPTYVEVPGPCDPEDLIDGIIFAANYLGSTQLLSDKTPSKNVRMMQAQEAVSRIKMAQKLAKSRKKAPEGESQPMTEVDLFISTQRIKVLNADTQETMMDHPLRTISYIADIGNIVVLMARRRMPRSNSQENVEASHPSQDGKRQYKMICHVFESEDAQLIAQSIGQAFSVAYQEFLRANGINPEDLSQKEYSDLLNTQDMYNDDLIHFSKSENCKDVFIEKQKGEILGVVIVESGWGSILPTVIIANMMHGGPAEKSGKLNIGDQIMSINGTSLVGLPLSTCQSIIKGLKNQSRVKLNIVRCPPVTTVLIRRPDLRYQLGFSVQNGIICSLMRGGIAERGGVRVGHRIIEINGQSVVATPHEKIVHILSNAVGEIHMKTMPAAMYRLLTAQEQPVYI

[7] = biological target: T3, Mannose-6-phosphate isomerase (Homo sapiens, UniProt P34949); assay: inhibitors of human PMI, primary screen, biochemical, fluorescence intensity, coupled assay (AID 1209)
T3 sequence (P34949 whole entry): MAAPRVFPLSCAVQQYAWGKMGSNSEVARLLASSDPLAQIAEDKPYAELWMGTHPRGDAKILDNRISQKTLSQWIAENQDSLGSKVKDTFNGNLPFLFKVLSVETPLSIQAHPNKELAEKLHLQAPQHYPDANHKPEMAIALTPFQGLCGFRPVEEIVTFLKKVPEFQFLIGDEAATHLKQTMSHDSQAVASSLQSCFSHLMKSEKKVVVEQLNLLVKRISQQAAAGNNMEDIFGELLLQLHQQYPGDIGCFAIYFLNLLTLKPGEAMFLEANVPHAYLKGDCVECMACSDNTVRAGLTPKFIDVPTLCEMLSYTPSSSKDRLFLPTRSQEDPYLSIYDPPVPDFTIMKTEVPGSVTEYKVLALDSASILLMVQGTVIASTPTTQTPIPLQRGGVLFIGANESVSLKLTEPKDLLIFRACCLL

[8] = biological target: T2, Voltage-gated N-type calcium channel alpha-1B subunit/Amyloid beta A4 precursor protein-binding family A member 1; assay type: protein assay; remark: listed apart in the source
[9] = biological target: Glucose-6-phosphate 1-dehydrogenase (Homo sapiens, UniProt P11413); assay: human G6PD enzyme inhibitors, dose response, selectivity assay for P. falciparum G6PD inhibitor project, biochemical, fluorescence (AID 504792); assay type: functional
[10] = tested on: Vero; assay: host cell cytotoxicity of antiviral hits, dose response, cytotoxicity control for West Nile virus antiviral project, secondary assay (AID 1650); assay type: functional; settings: Chlorocebus sabaeus
[11] = biological target: Cytochrome P450 3A4 (Homo sapiens, UniProt P08684); settings: Potency;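 also: confirmatory qHTS run detecting inhibitors and substrates of CYP3A4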
Cytochrome P450 3A4, sequence (P08684 whole entry): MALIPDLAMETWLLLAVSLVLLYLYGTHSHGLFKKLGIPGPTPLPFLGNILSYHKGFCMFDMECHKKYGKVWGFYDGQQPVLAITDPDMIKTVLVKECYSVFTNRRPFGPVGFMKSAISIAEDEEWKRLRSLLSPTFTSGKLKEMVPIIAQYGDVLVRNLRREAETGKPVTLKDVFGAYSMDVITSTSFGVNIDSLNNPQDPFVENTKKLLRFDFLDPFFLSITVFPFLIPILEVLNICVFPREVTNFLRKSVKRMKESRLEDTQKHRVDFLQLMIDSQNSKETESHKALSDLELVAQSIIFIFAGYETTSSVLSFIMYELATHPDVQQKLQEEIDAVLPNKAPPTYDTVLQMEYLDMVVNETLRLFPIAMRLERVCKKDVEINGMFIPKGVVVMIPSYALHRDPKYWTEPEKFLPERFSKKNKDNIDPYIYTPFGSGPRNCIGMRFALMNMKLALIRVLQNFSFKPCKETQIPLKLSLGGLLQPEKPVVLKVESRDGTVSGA

[12] = biological target: Cytochrome P450 2C19 (Homo sapiens, UniProt P33261); assay: qHTS Assay for Inhibitors and Substrates of Cytochrome P450 2C19. [Related pubchem assays: 410 ]; assay type: ADME; settings: read-out: Potency
Cytochrome P450 2C19, sequence (P33261 whole entry): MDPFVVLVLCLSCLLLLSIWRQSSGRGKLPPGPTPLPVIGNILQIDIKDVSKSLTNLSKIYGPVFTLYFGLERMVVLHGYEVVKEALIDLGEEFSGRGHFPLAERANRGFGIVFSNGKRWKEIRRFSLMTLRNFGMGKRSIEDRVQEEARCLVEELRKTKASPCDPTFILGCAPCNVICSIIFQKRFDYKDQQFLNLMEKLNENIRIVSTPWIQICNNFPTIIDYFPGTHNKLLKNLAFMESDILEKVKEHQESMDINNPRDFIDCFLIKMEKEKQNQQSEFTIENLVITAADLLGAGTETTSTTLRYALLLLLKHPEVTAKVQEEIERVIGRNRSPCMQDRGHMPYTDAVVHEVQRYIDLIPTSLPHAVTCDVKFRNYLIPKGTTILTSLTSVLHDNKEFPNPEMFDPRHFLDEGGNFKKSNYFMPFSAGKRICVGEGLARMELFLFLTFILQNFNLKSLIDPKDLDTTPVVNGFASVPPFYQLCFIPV

[13] = biological target: Sphingosine 1-phosphate receptor 2 (Homo sapiens, UniProt O95136); assay: Dose Response Cell Based Assay for Agonists of the S1P2 Receptor of Purchased Analogues. [Related pubchem assays: 729, 843, 854, 736 ]; assay type: functional
Sphingosine 1-phosphate receptor 2, sequence (O95136 whole entry): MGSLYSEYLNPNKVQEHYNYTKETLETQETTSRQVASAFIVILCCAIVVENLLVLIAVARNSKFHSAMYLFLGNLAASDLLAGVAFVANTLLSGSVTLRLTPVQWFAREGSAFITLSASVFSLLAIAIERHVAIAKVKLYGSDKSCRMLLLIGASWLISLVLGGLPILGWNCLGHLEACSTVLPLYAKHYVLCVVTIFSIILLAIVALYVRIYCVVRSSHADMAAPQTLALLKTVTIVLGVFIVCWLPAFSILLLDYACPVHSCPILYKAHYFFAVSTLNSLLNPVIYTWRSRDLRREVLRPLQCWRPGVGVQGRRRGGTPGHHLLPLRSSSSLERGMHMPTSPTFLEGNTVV

[14] = cells; settings: A549
[15] = cells
[16] = tested on: Vero; assay: West Nile virus antiviral activity, cell-based, CPE readout (AID 1621); assay type: functional; settings: Chlorocebus sabaeus
[17] = cells; settings: HEK293
[18] = Luminescence Cell-Based Dose Confirmation HTS to Identify Inhibitors of Polyadenylation.; assay type: functional
[19] = biological target: T4, Dual specificity protein phosphatase 6 (Rattus norvegicus, UniProt Q64346); assay: MKP-3 phosphatase inhibitors, primary screen, biochemical, rat enzyme, in vitro (AID 425)
T4 sequence (Q64346 whole entry): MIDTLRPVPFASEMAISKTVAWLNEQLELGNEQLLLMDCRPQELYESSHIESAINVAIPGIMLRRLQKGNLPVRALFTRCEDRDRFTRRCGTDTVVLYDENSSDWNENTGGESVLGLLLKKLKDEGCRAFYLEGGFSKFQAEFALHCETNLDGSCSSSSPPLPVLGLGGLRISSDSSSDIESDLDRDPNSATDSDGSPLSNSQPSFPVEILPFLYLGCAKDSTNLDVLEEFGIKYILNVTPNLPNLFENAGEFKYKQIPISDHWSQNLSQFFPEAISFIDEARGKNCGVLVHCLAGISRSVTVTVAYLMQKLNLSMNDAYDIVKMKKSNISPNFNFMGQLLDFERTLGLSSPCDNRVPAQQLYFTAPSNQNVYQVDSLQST

[20] = biological target: Heat shock protein HSP 90-alpha (Homo sapiens, UniProt P07900); assay type: functional, organism-based
[21] = microbe, parasite or virus in culture; assay type: functional; settings: Mycobacterium tuberculosis
[22] = A High Throughput Confirmatory Assay used to Identify Novel Compounds that Inhibit Mycobacterium Tuberculosis in the absence of Glycerol.; assay type: functional
[23] = biological target: Cytochrome P450 2C9 (Homo sapiens, UniProt P11712)
Cytochrome P450 2C9, sequence (P11712 whole entry): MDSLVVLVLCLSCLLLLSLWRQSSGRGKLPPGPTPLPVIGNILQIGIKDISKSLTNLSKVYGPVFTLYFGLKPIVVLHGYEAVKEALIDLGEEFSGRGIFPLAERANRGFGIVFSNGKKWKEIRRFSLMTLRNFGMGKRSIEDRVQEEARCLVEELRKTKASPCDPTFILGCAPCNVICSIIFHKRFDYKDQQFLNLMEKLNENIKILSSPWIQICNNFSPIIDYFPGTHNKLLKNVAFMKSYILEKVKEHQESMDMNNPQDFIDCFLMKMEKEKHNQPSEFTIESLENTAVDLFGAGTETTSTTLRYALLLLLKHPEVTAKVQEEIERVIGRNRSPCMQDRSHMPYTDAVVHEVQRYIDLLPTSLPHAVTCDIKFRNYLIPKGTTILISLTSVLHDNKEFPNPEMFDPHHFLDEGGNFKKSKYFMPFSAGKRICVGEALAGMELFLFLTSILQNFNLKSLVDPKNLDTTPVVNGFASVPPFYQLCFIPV

[24] = biological target: Protein-tyrosine kinase 2-beta (Homo sapiens, UniProt Q14289);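 also: potency of inhibitors of PYK2 kinase phosphorylation of poly-GT substrate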
[25] = biological target: T5, Low molecular weight phosphotyrosine protein phosphatase (Homo sapiens, UniProt P24666); assay type: functional; settings: read-out: IC50_Mean
T5 sequence (P24666 whole entry): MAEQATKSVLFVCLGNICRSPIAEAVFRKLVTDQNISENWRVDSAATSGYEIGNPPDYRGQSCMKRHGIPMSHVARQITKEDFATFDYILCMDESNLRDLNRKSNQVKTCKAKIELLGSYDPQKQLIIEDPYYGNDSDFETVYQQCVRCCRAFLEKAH

[26] = biological target: T6, DNA repair protein RAD52 homolog (Homo sapiens, UniProt P43351); assay type: functional, biochemical
T6 sequence (P43351 whole entry): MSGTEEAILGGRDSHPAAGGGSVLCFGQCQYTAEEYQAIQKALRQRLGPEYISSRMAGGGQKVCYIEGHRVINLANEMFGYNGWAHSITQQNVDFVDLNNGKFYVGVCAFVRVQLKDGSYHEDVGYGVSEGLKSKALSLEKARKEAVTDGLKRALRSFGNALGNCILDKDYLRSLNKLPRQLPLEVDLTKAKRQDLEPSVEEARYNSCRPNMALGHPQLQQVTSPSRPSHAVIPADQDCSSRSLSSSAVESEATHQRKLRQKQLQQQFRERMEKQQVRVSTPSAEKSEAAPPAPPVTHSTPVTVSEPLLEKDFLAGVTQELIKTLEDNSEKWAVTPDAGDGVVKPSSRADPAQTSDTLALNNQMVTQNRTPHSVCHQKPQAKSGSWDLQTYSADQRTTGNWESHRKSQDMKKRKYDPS

[27] = biological target: T5, Low molecular weight phosphotyrosine protein phosphatase; assay: LMPTP phosphatase inhibitors, colorimetric pNPP readout, dose response, orthogonal assay, biochemical, absorbance, pNPP substrate, LMPTP-A isoform, set 2 (AID 743308); assay type: functional
[28] = biological target: T7, DNA repair and recombination protein RAD54-like (Homo sapiens, UniProt Q92698); assay: inhibitors of human RAD54 branch migration, confirmation, biochemical, fluorescence, cherry-picked samples, dose series (AID 651657); assay type: functional
T7 sequence (Q92698 whole entry): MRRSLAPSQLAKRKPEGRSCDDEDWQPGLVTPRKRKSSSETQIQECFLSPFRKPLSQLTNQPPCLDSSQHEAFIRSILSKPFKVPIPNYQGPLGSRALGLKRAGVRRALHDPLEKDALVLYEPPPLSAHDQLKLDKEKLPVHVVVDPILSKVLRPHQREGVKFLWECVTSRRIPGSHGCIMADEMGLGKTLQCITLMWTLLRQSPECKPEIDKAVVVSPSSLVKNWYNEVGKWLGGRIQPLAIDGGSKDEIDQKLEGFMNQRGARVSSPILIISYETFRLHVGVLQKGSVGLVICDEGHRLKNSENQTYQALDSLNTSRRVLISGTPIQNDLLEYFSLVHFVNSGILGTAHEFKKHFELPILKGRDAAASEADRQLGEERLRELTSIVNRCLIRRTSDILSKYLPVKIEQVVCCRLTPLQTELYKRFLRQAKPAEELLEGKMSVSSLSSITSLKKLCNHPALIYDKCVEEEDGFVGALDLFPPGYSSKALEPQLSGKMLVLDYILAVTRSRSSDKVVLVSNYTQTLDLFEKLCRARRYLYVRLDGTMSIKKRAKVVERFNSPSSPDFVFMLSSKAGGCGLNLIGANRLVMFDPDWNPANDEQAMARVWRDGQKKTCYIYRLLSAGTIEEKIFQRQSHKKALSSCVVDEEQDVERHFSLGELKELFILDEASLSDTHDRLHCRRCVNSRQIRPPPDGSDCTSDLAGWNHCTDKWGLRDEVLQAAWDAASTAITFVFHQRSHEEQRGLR

[29] = biological target: T5, Low molecular weight phosphotyrosine protein phosphatase; assay type: functional; settings: read-out: IC50_Mean; remark: listed apart in the source
[30] = Counterscreen for activators of the function of SWI/SNF related, matrix associated, actin dependent regulator of chromatin, subfamily a, member 2 (SMARCA2, BRM): Luminescence-based cell-based high throughput dose response assay to identify non-selective compounds using the VP16 reporter assay.; assay type: functional
[31] = biological target: SWI/SNF-related matrix-associated actin-dependent regulator of chromatin subfamily A member 2 (Homo sapiens, UniProt P51531); assay: Luminescence-based cell-based high throughput dose response assay to identify activators of the function of SWI/SNF related, matrix associated, actin dependent regulator of chromatin, subfamily a, member 2 (SMARCA2, BRM).; assay type: functional
[32] = biological target: T5, Low molecular weight phosphotyrosine protein phosphatase; assay: LMPTP phosphatase inhibitors, dose response, biochemical, OMFP substrate, fluorescence intensity, set 2 (AID 743307); assay type: functional
[33] = DNA binding of candidate compounds, dose response, artefact control for RAD54 inhibitor project, biochemical, fluorescence polarization, cherry-pick (AID 651673); assay type: functional

## O=C(NC1C=CS(=O)(=O)C1)c1sc2ccccc2c1Cl (stereo not given)
[1]
  CC50: 23.9 µM (active)
[2]
  IC50: 2.82 µM (active)
[3]
  IC50: > 25 µM (active)

## O=C(Nc1nccs1)c1nc(-c2ccccc2)n(-c2ccccc2)n1
[4]
  EC50: 18.6 µM (active)

## CC1Cc2ccccc2N1C(=O)c1ccc(N2CCCC2)c([N+](=O)[O-])c1 (stereo not given)
[5]
  IC50: 51 µM (active)

## COc1ccc(N2CSC3=C(C#N)C(c4cc(OC)c(OC)cc4OC)CC(=O)N3C2)c(OC)c1 (stereo not given)
[6]
  IC50: 11.3 µM (active)
[7]
  IC50: 4.3 µM (active)
[8]
  IC50: 42.3 µM (active)
[9]
  IC50: 42.5 µM (inactive)

## CC(=O)Nc1cccc(C(=O)/C=C/c2ccc(F)cc2)c1
[10]
  CC50: 20.6 µM (active)

## CCOC(=O)OCC1OC(c2ccccc2)C=CC1Oc1cccc(N(C)C)c1 (stereo not given)
[11]
  AC50: 3.16 µM (inconclusive)
[12]
  AC50: 3.16 µM (inconclusive)

## Cc1cc(C(=O)CN2C(=O)NC(Cc3ccccc3)C2=O)c(C)n1Cc1ccccc1 (stereo not given)
[13]
  EC50: > 30 µM (not active)

## Cc1cccn2c(=O)c3cc(C(=O)NCCN4CCOCC4)c(=N)n(Cc4ccc(F)cc4)c3nc12
[1]
  CC50: > 25 µM (active)
[14]
  AC50: 18.3 µM (active)
[15]
  AC50: 1.96 µM (active)
[16]
  IC50: 25.6 µM (active)
[17]
  AC50: 48.4 µM (active)
[3]
  IC50: > 25 µM (active)

## COc1cc(C2CC(=O)Oc3c(C(CCN4CCOCC4)c4ccc(N(C)C)cc4)c(OC)cc(OC)c32)cc(OC)c1OC (stereo not given)
[18]
  EC50: > 120 µM (not active)

## COc1ccc(Cn2c(C)nc3c(c2=O)c2nc4ccccc4nc2n3Cc2ccco2)cc1
[19]
  IC50: 6.78 µM (active)

## O=C(OCC(=O)N1CCN(C(=O)c2ccco2)CC1)c1cc(-c2cccc(Br)c2)nc2ccccc12
[20]
  AC50: 4.25 µM (active)
[21]
  CC50: 14.4 µM (active)
[22]
  IC50: > 100 µM (active)

## COc1ccc(-c2coc3cc4oc(=O)cc(C)c4cc23)cc1F
[23]
  AC50: 5.01 µM (inconclusive)
[24]
  IC50: 12.5 µM (not active)

## c1ccc(-c2cc(NCCN3CCCCC3)c3ccccc3n2)cc1
[25]
  IC50: 3.49 µM (active)
[26]
  AC50: < 3.63 µM (active)
[27]
  IC50: 8.37 µM (active)
[28]
  AC50: 4.86 µM (active)
[29]
  IC50: 5.8 µM (active)
[30]
  EC50: > 91.2 µM (inactive)
[31]
  EC50: 10.9 µM (inactive)
[32]
  IC50: 3.7 µM (active)
[33]
  AC50: 58.8 µM (active)
